This note sets out measurements from paper PMC4242080, “NMR structure of the water soluble Aβ17–34 peptide” (Bioscience Reports, 2014).

SMILES strings stand for the structures.

This data set can be described thus: Peptide solubility in aqueous buffers and water. How it is done:
These peptides contained two glutamate or arginine residues at the N- and C-termini for increased solubility. The full amino acid sequence of the purchased Aβ was […] (Peptide 2.0 Inc. Company) and […] (Sigma-Aldrich). The peptide mass was verified using MALDI-TOF mass spectroscopy. To dissolve the peptides, phosphate and acetate aqueous buffers were prepared. None of the buffers contained hydrophobic solvents known to solubilize and stabilize α-helices (i.e. TFE or HFPI) or surfactants known to dissolve hydrophobic peptides (i.e. SDS). Henceforth, the Aβ17–34 peptide refers to the peptide flanked by two glutamates.
To solubilize Aβ, several approaches were taken. One approach was to add two arginines at the N- and C-termini. […] Another approach was to add two glutamic acids at the N- and C-termini.

For `CC[C@H](C)[C@H](NC(=O)[C@H](C)NC(=O)CNC(=O)[C@H](CCCCN)NC(=O)[C@H](CC(N)=O)NC(=O)[C@H](CO)NC(=O)CNC(=O)[C@@H](NC(=O)[C@H](CC(=O)O)NC(=O)[C@H](CCC(=O)O)NC(=O)[C@H](C)NC(=O)[C@H](Cc1ccccc1)NC(=O)[C@H](Cc1ccccc1)NC(=O)[C@@H](NC(=O)[C@H](CC(C)C)NC(=O)[C@H](CCCNC(=N)N)NC(=O)[C@@H](N)CCCNC(=N)N)C(C)C)C(C)C)C(=O)N[C@H](C(=O)NCC(=O)N[C@@H](CC(C)C)C(=O)N[C@@H](CCCNC(=N)N)C(=O)N[C@@H](CCCNC(=N)N)C(=O)O)[C@@H](C)CC`, the “solubility in acetate and phosphate buffers at pH 1, 7 and 10” value (acetate and phosphate aqueous buffers, pH 1, 7 and 10, no TFE, HFPI or SDS, compared with peptide without flanking residues) was “did not improve solubility”.

As for `CC[C@H](C)[C@H](NC(=O)[C@H](C)NC(=O)CNC(=O)[C@H](CCCCN)NC(=O)[C@H](CC(N)=O)NC(=O)[C@H](CO)NC(=O)CNC(=O)[C@@H](NC(=O)[C@H](CC(=O)O)NC(=O)[C@H](CCC(=O)O)NC(=O)[C@H](C)NC(=O)[C@H](Cc1ccccc1)NC(=O)[C@H](Cc1ccccc1)NC(=O)[C@@H](NC(=O)[C@H](CC(C)C)NC(=O)[C@H](CCC(=O)O)NC(=O)[C@@H](N)CCC(=O)O)C(C)C)C(C)C)C(=O)N[C@H](C(=O)NCC(=O)N[C@@H](CC(C)C)C(=O)N[C@@H](CCC(=O)O)C(=O)N[C@@H](CCC(=O)O)C(=O)O)[C@@H](C)CC` [Aβ17–34 peptide], the “effect of terminal residue addition on solubility” value is given as “improved solubility drastically” and the solubility in water result is on record as “not in water”. Further, under “pH 7”, the “solubility in 50 mM acetate buffer at pH 7” value is reported as “soluble” and the “solubility in 50 mM phosphate buffer at pH 7” value is listed as “soluble”.
